Literature values in patent publication US20250354118A1, “COMPOSITIONS AND METHODS FOR NK CELL DIFFERENTIATION” (Umoja Biopharma, Inc., priority 2022, published 2025).

Target: PSMA-positive human prostate cancer cells (Homo sapiens, UniProt Q04609)
Details: Kularatne et al., Mol Pharm. 2009

Sequence of PSMA-positive human prostate cancer cells (Q04609 whole entry): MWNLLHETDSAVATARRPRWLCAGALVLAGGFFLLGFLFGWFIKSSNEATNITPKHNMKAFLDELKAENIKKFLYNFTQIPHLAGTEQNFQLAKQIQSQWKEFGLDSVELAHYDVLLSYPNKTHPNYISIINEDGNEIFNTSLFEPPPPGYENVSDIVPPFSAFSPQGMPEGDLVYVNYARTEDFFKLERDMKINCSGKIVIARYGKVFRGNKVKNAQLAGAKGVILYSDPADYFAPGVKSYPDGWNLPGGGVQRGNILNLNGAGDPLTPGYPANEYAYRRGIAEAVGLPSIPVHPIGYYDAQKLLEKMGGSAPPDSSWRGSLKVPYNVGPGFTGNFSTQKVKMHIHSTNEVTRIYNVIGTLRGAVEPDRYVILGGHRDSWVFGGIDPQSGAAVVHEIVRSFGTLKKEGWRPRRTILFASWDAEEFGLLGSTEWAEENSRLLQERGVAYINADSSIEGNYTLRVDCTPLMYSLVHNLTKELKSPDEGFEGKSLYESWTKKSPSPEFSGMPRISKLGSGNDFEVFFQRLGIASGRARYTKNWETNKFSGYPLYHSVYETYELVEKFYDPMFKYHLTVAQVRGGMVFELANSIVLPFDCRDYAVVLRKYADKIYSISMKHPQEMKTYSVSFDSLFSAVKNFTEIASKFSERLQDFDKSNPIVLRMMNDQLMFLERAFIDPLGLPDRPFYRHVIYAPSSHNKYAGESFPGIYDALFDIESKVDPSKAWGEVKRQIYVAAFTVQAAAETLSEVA

Kd: 14 nM
SMILES: O=C(O)CC[C@H](NC(=O)N[C@@H](CCC(=O)O)C(=O)O)C(=O)O [DUPA]
